Assays:
[1] = system: SMN2 minigene mRNA (SMN2-A minigene construct); test: SMN2 minigene mRNA splicing RT-qPCR assay in cultured cells; format: cell-based, human; conditions: Homo sapiens, HEK293-H; HEK293H cells stably transfected with SMN2-A minigene, 24 hours, 7-point concentration data; concentration giving 1.5-fold SMN2 full length mRNA relative to vehicle-treated cells; read-out: EC1.5x for production of full length SMN2 mRNA
Method in brief: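 Full-length SMN2 minigene mRNA, measured by exon 7/luciferase-specific RT-qPCR that excludes endogenous SMN1/SMN2, was normalized to GAPDH and expressed relative to vehicle-treated cells via modified ΔΔCt. Stably transfected HEK293H cells received compound (7-point, 3.16-fold series, duplicates) for 24 h at 37 °C.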

Smn protein = Smn protein assay (HTRF) in cultured cells (SMA patient fibroblasts GM03813); format: cell-based, human; conditions: 48 hours; for maximum fold (Fold) increase of Smn protein: SMA patient fibroblast cells, 7-point concentration curve, relative to vehicle control; for EC1.5x for Smn protein expression: SMA patient fibroblast cells (GM03813), HTRF, 7-point concentration data, concentration producing 1.5 times Smn protein vs DMSO vehicle control
Method in brief: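 Smn level is expressed as fold over vehicle, from blank-corrected ΔF of the 665/620 nm HTRF ratio. Readout used anti-SMN d2 and kryptate antibodies on RIPA lysates. GM03813 SMA fibroblasts had 48 h exposure at 37° C to seven 3.16-fold compound dilutions, run in triplicate.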

melting point [°C] | Compound | EC (1.5-fold) [1] [µM] | maximum fold (Fold) increase of Smn protein (Smn protein) | EC1.5x for Smn protein expression (Smn protein)
271 to 273 | CCN1CCCN(c2ccc3cc(-c4cn5cccnc5n4)c(=O)oc3n2)CC1 [Cpd 126, 7-(4-ethyl-1,4-diazepan-1-yl)-3-(imidazo[1,2-a]pyrimidin-2-yl)-2H-pyrano[2,3-b]pyridin-2-one] | 0.1 to 0.3 | *** (a fold increase between >1.35 and ≦1.5 is indicated by three stars (***)) | 
285 to 288 | CCN1CCCN(c2ccc3cc(-c4cn5ccccc5n4)c(=O)oc3n2)CC1 [Cpd 127, 7-(4-ethyl-1,4-diazepan-1-yl)-3-(imidazo[1,2-a]pyridin-2-yl)-2H-pyrano[2,3-b]pyridin-2-one] | ≤ 0.1 | **** (a fold increase between >1.5 and ≦1.65 is indicated by four stars (****)) | *** (an EC1.5× between >0.3 μM and ≦1 μM is indicated by three stars (***))
289 to 291 | CCN1CCCN(c2ccc3cc(-c4cn5cc(C)nc(C)c5n4)c(=O)oc3n2)CC1 [Cpd 128, 3-(6,8-dimethylimidazo[1,2-a]pyrazin-2-yl)-7-(4-ethyl-1,4-diazepan-1-yl)-2H-pyrano[2,3-b]pyridin-2-one] | ≤ 0.1 | ***** (a fold increase >1.65 is indicated by five stars (*****)) | **** (an EC1.5×≦0.3 μM is indicated by four stars (****))
281 to 284 | CCN1[C@H](C)CN(c2ccc3cc(-c4cn5ccccc5n4)c(=O)oc3n2)C[C@@H]1C [Cpd 129, 7-[(3R,5S)-4-ethyl-3,5-dimethylpiperazin-1-yl]-3-(imidazo[1,2-a]pyridin-2-yl)-2H-pyrano[2,3-b]pyridin-2-one] | ≤ 0.1 | ***** (a fold increase >1.65 is indicated by five stars (*****)) | **** (an EC1.5×≦0.3 μM is indicated by four stars (****))
235 to 237 | CCN1CCN(c2ccc3cc(-c4cn5cc(C)ccc5n4)c(=O)oc3n2)CC1 [Cpd 130, 7-(4-ethylpiperazin-1-yl)-3-(6-methylimidazo[1,2-a]pyridin-2-yl)-2H-pyrano[2,3-b]pyridin-2-one] | 0.1 to 0.3 | *** (a fold increase between >1.35 and ≦1.5 is indicated by three stars (***)) | * (An EC1.5× for Smn protein expression between >3 μM and ≦10 μM is indicated by one star (*))
258 to 261 | CCN1CCN(c2ccc3cc(-c4cn5ccc(C)cc5n4)c(=O)oc3n2)CC1 [Cpd 131, 7-(4-ethylpiperazin-1-yl)-3-(7-methylimidazo[1,2-a]pyridin-2-yl)-2H-pyrano[2,3-b]pyridin-2-one] | 0.1 to 0.3 | *** (a fold increase between >1.35 and ≦1.5 is indicated by three stars (***)) | 
203 to 206 | CCN1CCN(c2ccc3cc(-c4cn5cccc(F)c5n4)c(=O)oc3n2)CC1 [Cpd 132, 7-(4-ethylpiperazin-1-yl)-3-(8-fluoroimidazo[1,2-a]pyridin-2-yl)-2H-pyrano[2,3-b]pyridin-2-one] | 0.1 to 0.3 | ** (a fold increase between >1.2 and ≦1.35 is indicated by two stars (**)) | 
218 to 221 | CCN1CCN(c2ccc3cc(-c4cn5cccc(Cl)c5n4)c(=O)oc3n2)CC1 [Cpd 133, 3-(8-chloroimidazo[1,2-a]pyridin-2-yl)-7-(4-ethylpiperazin-1-yl)-2H-pyrano[2,3-b]pyridin-2-one] | ≤ 0.1 | *** (a fold increase between >1.35 and ≦1.5 is indicated by three stars (***)) | *** (an EC1.5× between >0.3 μM and ≦1 μM is indicated by three stars (***))
238 to 242 | CCN1CCN(c2ccc3cc(-c4cn5cc(C)cc(F)c5n4)c(=O)oc3n2)CC1 [Cpd 134, 7-(4-ethylpiperazin-1-yl)-3-(8-fluoro-6-methylimidazo[1,2-a]pyridin-2-yl)-2H-pyrano[2,3-b]pyridin-2-one] | 0.1 to 0.3 | *** (a fold increase between >1.35 and ≦1.5 is indicated by three stars (***)) | * (An EC1.5× for Smn protein expression between >3 μM and ≦10 μM is indicated by one star (*))
239 to 243 | CCN1CCN(c2ccc3cc(-c4cn5cc(C)cc(F)c5n4)c(=O)oc3n2)C[C@@H]1C [Cpd 137, 7-[(3S)-4-ethyl-3-methylpiperazin-1-yl]-3-(8-fluoro-6-methylimidazo[1,2-a]pyridin-2-yl)-2H-pyrano[2,3-b]pyridin-2-one] | ≤ 0.1 | **** (a fold increase between >1.5 and ≦1.65 is indicated by four stars (****)) | *** (an EC1.5× between >0.3 μM and ≦1 μM is indicated by three stars (***))
195 to 200 | CCN1CCCN(c2ccc3cc(-c4cn5cc(C)cc(F)c5n4)c(=O)oc3n2)CC1 [Cpd 138, 7-(4-ethyl-1,4-diazepan-1-yl)-3-(8-fluoro-6-methylimidazo[1,2-a]pyridin-2-yl)-2H-pyrano[2,3-b]pyridin-2-one] | ≤ 0.1 | **** (a fold increase between >1.5 and ≦1.65 is indicated by four stars (****)) | **** (an EC1.5×≦0.3 μM is indicated by four stars (****))
189 to 191 | CCN1CCCN(c2ccc3cc(-c4cn5cccc(F)c5n4)c(=O)oc3n2)CC1 [Cpd 139, 7-(4-ethyl-1,4-diazepan-1-yl)-3-(8-fluoroimidazo[1,2-a]pyridin-2-yl)-2H-pyrano[2,3-b]pyridin-2-one] | ≤ 0.1 | **** (a fold increase between >1.5 and ≦1.65 is indicated by four stars (****)) | **** (an EC1.5×≦0.3 μM is indicated by four stars (****))
238 to 241 | CCN1CCN(c2ccc3cc(-c4cn5cc(C)nc(C)c5n4)c(=O)oc3n2)CC1 [Cpd 140, 3-(6,8-dimethylimidazo[1,2-a]pyrazin-2-yl)-7-(4-ethylpiperazin-1-yl)-2H-pyrano[2,3-b]pyridin-2-one] | 0.3 to 1 | **** (a fold increase between >1.5 and ≦1.65 is indicated by four stars (****)) | ** (an EC1.5× between >1 and ≦3 μM is indicated by two stars (**))
201 to 204 | CCN1CCCN(c2ccc3cc(-c4cn5cccc(Cl)c5n4)c(=O)oc3n2)CC1 [Cpd 141, 3-(8-chloroimidazo[1,2-a]pyridin-2-yl)-7-(4-ethyl-1,4-diazepan-1-yl)-2H-pyrano[2,3-b]pyridin-2-one] | ≤ 0.1 | **** (a fold increase between >1.5 and ≦1.65 is indicated by four stars (****)) | **** (an EC1.5×≦0.3 μM is indicated by four stars (****))
217 to 221 | CCN1CCCN(c2ccc3cc(-c4cn5cc(C)ncc5n4)c(=O)oc3n2)CC1 [Cpd 142, 7-(4-ethyl-1,4-diazepan-1-yl)-3-(6-methylimidazo[1,2-a]pyrazin-2-yl)-2H-pyrano[2,3-b]pyridin-2-one] | ≤ 0.1 | **** (a fold increase between >1.5 and ≦1.65 is indicated by four stars (****)) | *** (an EC1.5× between >0.3 μM and ≦1 μM is indicated by three stars (***))
252 to 256 | CCN1CCN(c2ccc3cc(-c4cn5cc(C)ncc5n4)c(=O)oc3n2)C[C@@H]1C [Cpd 143, 7-[(3S)-4-ethyl-3-methylpiperazin-1-yl]-3-(6methylimidazo-[1,2-a]pyrazin-2-yl)-2H-pyrano[2,3-b]pyridin-2-one] | ≤ 0.1 | **** (a fold increase between >1.5 and ≦1.65 is indicated by four stars (****)) | *** (an EC1.5× between >0.3 μM and ≦1 μM is indicated by three stars (***))
184 to 190 | CCN1CCN(c2ccc3cc(-c4cn5cc(C)nc(C)c5n4)c(=O)oc3n2)C[C@@H]1C [Cpd 144, 3-(6,8-dimethylimidazo[1,2-a]pyrazin-2-yl)-7-[(3S)-4-ethyl-3-methylpiperazin-1-yl]-2H-pyrano[2,3-b]pyridin-2-one] | ≤ 0.1 | **** (a fold increase between >1.5 and ≦1.65 is indicated by four stars (****)) | **** (an EC1.5×≦0.3 μM is indicated by four stars (****))
196 to 199 | CCN1CCN(c2ccc3cc(-c4cn5cccc(Cl)c5n4)c(=O)oc3n2)C[C@@H]1C [Cpd 145, 3-(8-chloroimidazo[1,2-a]pyridin-2-yl)-7-[(3S)-4-ethyl-3-methylpiperazin-1-yl]-2H-pyrano[2,3-b]pyridin-2-one] | ≤ 0.1 | **** (a fold increase between >1.5 and ≦1.65 is indicated by four stars (****)) | **** (an EC1.5×≦0.3 μM is indicated by four stars (****))

Reference: patent US9371336B2, “Compounds for treating spinal muscular atrophy” (PTC Therapeutics Inc., priority 2012, dated 2016)
